According to patent US20240325544A1, “CATIONIC LIPID FOR COVALENT MODIFICATION OF PEPTIDES” (PharmalN Corporation, priority 2023, published 2024):
Marks after values point to notes of the source that are not given here. Bridge positions count the residues as written; N and C are the ends. Square brackets hold non-standard residues; d marks the D form. Ends that are not written are not given here. Peptide text beside a SMILES is read from it. * marks the point of attachment. Palmitoyl = CCCCCCCCCCCCCCCC(=O)*; Dab = NCC[C@H](N)C(=O)O; Dap = NC[C@H](N)C(=O)O; AEEA = NCCOCCOCC(=O)O

How the values were obtained:
MC38 colon cancer cells = test: Subcutaneous mouse model of colon cancer using MC38 cells (FIG. 12); type: in vivo, mice; conditions: combination with anti-tigit Ab 5 mg/kg IP twice a week, 2 cycles
Procedure: FIGS. 12A-12B. […] Error bars represent standard error of the mean. FIG. 12A) A diagram of the dose schedule for administration of immune checkpoint inhibitor (anti-tigit Ab) and SEQ ID NO: 31. FIG. 12 B) Tumor growth kinetics of 6-week-old male C57BL/6J mice (n=8-9 per group) that were subcutaneously inoculated with MC38 colon cancer cells (1,000,000 cells/mouse) in right flank. Starting from Day 4 post-inoculation, anti-tigit Ab was administered intraperitoneally at 5 mg/kg twice a week for 2 cycles; SEQ ID NO: 31 was administered subcutaneously at a bolus dose of 0.3 mg/kg (0.1 μmol/kg) once daily for 5 days (5 days on, 2 days off) for 3 cycles; or a combination of anti-tigit Ab (5 mg/kg IP twice a week; 2 cycles) and SEQ ID NO: 31 (0.3 mg/kg SC once a day for 5 days on and 2 days off; 3 cycles). The control group, which received only buffer, was dosed in the same manner as SEQ ID NO: 31 to establish the baseline tumor growth kinetics. […]
Animal care and treatment: Male C57BL/6J mice (6 weeks-old) were purchased from Kyudo (Saga, Japan) and maintained under a 12-hour light/12-hour dark cycle with free access to water and standard mouse diet (MF diet; Oriental Yeast Co., Ltd, Tokyo Japan). […] Tumor sizes were measured using calipers on Days 4, 7, 14, and Day 22 post-inoculation. […]

[1] = Clinically observable adverse effects of cationic alkyl moieties after subcutaneous bolus in rats (Table 1); type: in vivo, rat; conditions: male, Sprague-Dawley, rat, in vivo, sc, tested at 3.0, 5.0 or 10 μmol/kg, lethargy is considered maximum tolerated bolus dose, read-out: Lethargy* in n = 3
Procedure, shortened: (§1)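 Rats given subcutaneous bolus of cationic alkyl modifier in sterile water pH 4.5-5, starting 5.0 μmol/kg, raised to 10 μmol/kg if no swelling or lowered to 3.0 μmol/kg if swelling, 1-week wash-out. Monitored for lethargy, ataxia, swelling, discoloration closely for 4 h, then hourly.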

Sprague Dawley rats [2] = test: as above; type: in vivo, rat; conditions: tested at 3.0, 5.0 or 10 μmol/kg; for Ataxia** in n = 3: ataxia is bolus dose limiting toxicity; for Swelling and/or Discoloration in n = 3: dose at which sign was seen
Procedure, shortened: as §1

[3] = tested on: E0771 breast cancer cells; test: Orthotopic mouse model of breast cancer using E0771 cells (FIG. 6); type: in vivo, mice; conditions: 0.3 mg/kg (0.1 μmol/kg) SC once daily, 5 days on, 2 days off, 3 cycles
Procedure: Error bars represent standard error of the mean. FIG. 6A) Tumor growth kinetics of 6-week-old female C57BL/6J mice (n=10 per group) that were inoculated with E0771 breast cancer cells (250,000 cells/mouse) in the mammary gland. Starting from Day 4 post-inoculation, cationic alkyl modified CNP derivatives (SEQ ID NO: 29, 30, and 31) were administered subcutaneously at a bolus dose of 0.3 mg/kg (0.1 μmol/kg) once daily for 5 days (5 days on, 2 days off) for 3 cycles; dose days indicated by gridlines. The control group, which received only buffer, was dosed in the same manner to establish the baseline tumor growth kinetics. […] Therefore, it can be concluded that the attachment of CNP is important for the observed anti-tumor activity. Statistical analysis was based on Dunnett's test performed by using GraphPad (n=10, 10, 10, and 10; Control, SEQ ID NO: 29, SEQ ID NO: 30, and SEQ ID NO: 31) **** P<0.0001 vs Control group.
Therefore, it can be concluded that the attachment of CNP is essential for anti-tumor activity. […] Animal care and treatment: Female C57BL/6J mice (6 weeks-old) were purchased from Kyudo (Saga, Japan) and maintained under a 12-hour light/12-hour dark cycle with free access to water and standard mouse diet (MF diet, Oriental Yeast Co., Ltd. Tokyo, Japan or PicoLab Rodent Diet 20, LabDiet Corp., St. Louis, Missouri). Implantation and drug administration: Mice were implanted with E0771 breast cancer cells (250,000 cells/mouse; Cosmo Bio Tokyo, Japan) in their left mammary gland and were randomized into groups of n=10. Starting from Day 4 post-inoculation, cationic alkyl modified CNP derivatives (SEQ ID NOs: 29, 30, and 31) were administered subcutaneously at a bolus dose of 0.3 mg/kg (0.1 μmol/kg; with a dose volume of 10 mL/kg) in sterile water for injection (Otsuka Pharmaceutical, Tokushima, Japan) once daily for 5 days (5 days on, 2 days off) for 3 cycles. The control group, which received only buffer, was dosed in the same manner to establish the baseline tumor growth kinetics. Tumor sizes were measured using calipers. Statistical analysis was based on Dunnett's test performed by using GraphPad (n=10, 10, 10, and 10; Control, SEQ ID NO: 29, SEQ ID NO: 30, and SEQ ID NO: 31) **** P<0.0001 vs Control group.

Sprague Dawley rats [4] = test: Dose-range finding of cationic alkyl modified CNP, subcutaneous bolus in rats (Table 2)
Procedure: Animal care and treatment: Male Sprague Dawley rats aged 8 to 10 weeks (Charles River, Hollister, CA) were housed in groups of two (n=3/group) in disposable polypropylene cages with rodent cob bedding at the PharmaIN animal facility. Animals had ad libitum access to food (LabDiet Pico Rodent #5053; Animal Specialties, Woodburn, OR) and water. Temperature (68-74° F.) and humidity (30-60%) were maintained within a controlled range, and a 12-hour light/dark cycle was used. […] Animals were monitored closely during the first 4 hours following injection, then hourly throughout the rest of the day for any signs of swelling or discoloration (dilatory side effect), lethargy (side effect), ataxia (ataxia is used as a marker of toxicity). Rats were allowed a 1-week wash-out period between bolus doses. Following final observations, animals were humanely euthanized through CO2 asphyxiation.

cGMP = test: Plasma cGMP after SC bolus of natriuretic peptides in CD-1 mice (pharmacodynamics, Table 3); type: in vivo; conditions: SC bolus 1.0 mg/kg (≤0.45 μmol/kg), baseline 10 +/−8 pmol/ml, n = 3-5
Procedure, shortened: (§2)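 Peptides given SC in sterile water; retro-orbital blood at 2 and 6 h post-dose (two bleeds per mouse), K2EDTA plasma. Plasma cGMP by commercial immunoassay kit; ANP, BNP or CNP plasma levels by peptide-specific ELISA.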

[5] = Plasma concentration of respective natriuretic peptide by ELISA after SC bolus in CD-1 mice (pharmacokinetics, Table 3); conditions: male, CD-1, mouse, in vivo, sc, 1 mg/kg
Procedure, shortened: as §2

[6] = biological target: T1, Recombinant human NPRB extracellular domain - human IgG1 Fc fusion (NPRB-Fc) (human, UniProt P20594 23-458); test: Fluorescence polarization competition: 150 nM SEQ ID NO: 31 against 5 nM CNP-F* on 50 nM human NPRB
T1 construct: extracellular domain; Used at 50 nM in the fluorescence polarization assay; R1-T433 counts on the mature protein; also called natriuretic peptide receptor B; not shown: Human IgG1 heavy chain, amino acids E216-G446 (IMGT.org, EU numbering), Accn; P01857.2
T1 sequence (looked up): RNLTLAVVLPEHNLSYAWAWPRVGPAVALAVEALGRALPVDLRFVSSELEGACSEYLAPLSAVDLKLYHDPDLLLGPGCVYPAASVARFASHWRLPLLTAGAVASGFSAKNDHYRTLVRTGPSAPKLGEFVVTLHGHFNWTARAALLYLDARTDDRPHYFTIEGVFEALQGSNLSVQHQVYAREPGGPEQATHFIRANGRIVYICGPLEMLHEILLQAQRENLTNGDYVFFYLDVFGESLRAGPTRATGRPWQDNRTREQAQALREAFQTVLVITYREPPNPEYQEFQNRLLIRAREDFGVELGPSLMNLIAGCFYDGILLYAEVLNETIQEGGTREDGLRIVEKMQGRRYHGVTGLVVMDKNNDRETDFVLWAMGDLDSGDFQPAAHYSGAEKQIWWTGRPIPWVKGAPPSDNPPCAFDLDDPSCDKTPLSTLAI
Procedure: In the presence of [SEQ ID.
Next, 1-L volume of SEQ ID. […] The plate was incubated at room temperature for 10 min. Fluorescence polarization was then measured on Flexstation 3 (excitation wavelength: 480 nm; emission wavelength: 525 nm and cutoff at 515 nm).

CCCCCCCCCCCCCCCC(=O)NCCOCCOCC(=O)NCCOCCOCC(=O)NCCOCCOCC(=O)N[C@H](CCCCN)C(=O)N[C@H](CCCCN)C(=O)O [SEQ ID NO: 3, CH3(CH2)14(C═O)-Aeea-Aeea-Aeea-kk]
Anti-tumor effect vs anti-tigit Ab monotherapy (MC38 colon cancer cells): outperformed the anti-tumor effect of anti-tigit Ab as a monotherapy | MTD [1]: ≥ 5 µmol/kg | Ataxia** in n = 3 (Sprague Dawley rats [2]): ≥5 µmol/kg | Swelling and/or Discoloration in n = 3 (Sprague Dawley rats [2]): ≥3 µmol/kg

CCCCCCCCCCCCCCCC(=O)NCCOCCOCC(=O)NCCOCCOCC(=O)NCCOCCOCC(=O)N[C@@H](CN)C(=O)N[C@@H](CN)C(=O)O [SEQ ID NO: 14, CH3(CH2)14(C═O)-Aeea-Aeea-Aeea-Dap-Dap] ({Palmitoyl-AEEA-AEEA-AEEA}-[Dap]-[Dap]-OH; C-terminus assumed)
Tumor volume compared to the Control group [3]: did not show a significant reduction in tumor volume | MTD [1]: > 10 µmol/kg | Ataxia** in n = 3 (Sprague Dawley rats [2]): >10 µmol/kg | Swelling and/or Discoloration in n = 3 (Sprague Dawley rats [2]): >10 µmol/kg

CCCCCCCCCCCCCCCC(=O)N[C@@H](Cc1ccc(O)cc1)C(=O)N[C@@H](CCC(=O)O)C(=O)NCCOCCOCC(=O)NCCOCCOCC(=O)N[C@@H](CCN)C(=O)N[C@@H](CCN)C(=O)NCC(=O)N[C@@H](CC(C)C)C(=O)N[C@@H](CO)C(=O)N[C@@H](CCCCN)C(=O)NCC(=O)N[C@H]1CSSC[C@@H](C(=O)O)NC(=O)CNC(=O)[C@H](CC(C)C)NC(=O)CNC(=O)[C@H](CO)NC(=O)[C@H](CCC(N)=O)NC(=O)[C@H](CO)NC(=O)CNC(=O)[C@H]([C@@H](C)CC)NC(=O)[C@H](CCCNC(=N)N)NC(=O)[C@H](CC(=O)O)NC(=O)[C@H](CC(C)C)NC(=O)[C@H](CCCCN)NC(=O)[C@H](CC(C)C)NC(=O)CNC(=O)[C@H](Cc2ccccc2)NC1=O [SEQ ID NO: 30] (Palmitoyl-YE[AEEA][AEEA][Dab][Dab]GLSKGCFGLKLDRIGSQSGLGC-OH; disulfide 12-28; C-terminus assumed)
Ataxia** in n = 3 (Sprague Dawley rats [4]; up to 10 mg/kg): >10 mg/kg | Lethargy* in n = 3 (Sprague Dawley rats [4]; up to 10 mg/kg): ≥10 mg/kg | Swelling and/or Discoloration in n = 3 (Sprague Dawley rats [4]; up to 10 mg/kg): >10 mg/kg | Ataxia** in n = 3 (Sprague Dawley rats [4]; value in parentheses): (3.3) μmol/kg | Lethargy* in n = 3 (Sprague Dawley rats [4]; value in parentheses): (3.3) μmol/kg | Swelling and/or Discoloration in n = 3 (Sprague Dawley rats [4]; value in parentheses): (3.3) μmol/kg | Tumor volume compared to the Control group [3]: significant decrease in tumor volume | Plasma concentration of cGMP, 2 hr (cGMP; 2 hr): 217.30** pmol/mL | Plasma concentration of cGMP, 6 hr (cGMP; 6 hr): 83.85* pmol/mL | level at 2 h [5]: 12.6 ng/mL | level at 6 h [5]: 1.9 ng/mL

B1: SEQ ID NO: 31, cationic alkyl modified CNP derivative CH3(CH2)14(C=O)-Aeea-Aeea-Aeea-Dap-Dap-GLSKGCFGLKLDRIGSQSGLGC (disulfide bond) (peptide)
peptide: Palmitoyl-[AEEA][AEEA][AEEA][Dap][Dap]GLSKGCFGLKLDRIGSQSGLGC
modifications: disulfide 11-27
notes: The entry holds non-natural residues (Aeea, Dap) before the 22 residues of the CNP part
binding result [6]: binds
